According to patent US10000454B2, “Antidiabetic tricyclic compounds” (Merck Sharp & Dohme Corp., priority 2014, dated 2018):

Key:
Human GPR40 [1] = biological target: T1, Human GPR40 (Homo sapiens, UniProt O14842); assay: FLIPR assay, agonist-induced calcium mobilization; assay type: cell-based; design: expressed in transfected cells; settings: GPR40/CHO NFAT BLA cells
Method: (§1) Human and mouse GPR40 stable cell-lines were generated in CHO cells stably expressing NFAT BLA (Beta-lactamase). A human GPR40 stable cell-line was generated in HER cells stably expressing the aequorin expressing reporter. The expression plasmids were transfected using lipofectamine (Life Technologies) following manufacturer's instructions. Stable cell-lines were generated following drug selection.
FLIPR (Fluorimetric Imaging Plate Reader, Molecular Devices) assays were performed to measure agonist-induced calcium mobilization of the stable clones. For the FLIPR assay, one day before assay, GPR40/CHO NFAT BLA cells were seeded into black-wall-clear-bottom 384-well plates (Costar) at 1.4×10e4 cells/20 μL medium/well. The cells were incubated with 20 μl/well of the assay buffer (HMS, 0.1% BSA, 20 mM HEPES, 2.5 mM probenecid, pH 7.4) containing 8 μM fluo-4, AM, 0.08% pluronic acid at room temperature for 100 minutes. Fluorescence output was measured using FLIPR. Compounds were dissolved in DMSO and diluted to desired concentrations with assay buffer. 13.3 μL/well of compound solution was added.

Human GPR40 [2] = biological target: T1, Human GPR40; assay: Inositol Phosphate Turnover (IP1) Assay; assay type: cell-based; design: expressed in transfected cells; host or cells: HEK cells (stably expressing the aequorin reporter); settings: HEK cells stably expressing human GPR40, CisBio IP-One kit
Method: as §1
The assay is performed in 384-well format. HEK cells stably expressing human GPR40 are plated at 15,000 cells per well in growth medium (DMEM/10% fetal calf serum). Cell plates are then incubated 16 hours at 37 degrees in a 5% CO2 incubator.
Measurement of Inositol Phosphate Turnover (IP1) is performed using the CisBio IP-One kit (Part number 62IPAPEB). After the 16 hour incubation, the cells are washed with HEPES buffer and 10 ul of stimulation buffer (prepared as described in the kit) is added to each well. In a separate plate, compounds are diluted in DMSO (400-fold over the final concentration in the assay well) and 25 nl is acoustically transferred to the appropriate well in the assay cell plate. The plates are then incubated for 60 minutes at 37 degrees. 10 ul of detection buffer (also prepared as described in the IP-One kit) is added to each well and the plates are incubated for 60 minutes in the dark. The plates are then read in a Perkin Elmer EnVision or equivalent reader able to measure FRET. Fluorescent ratio of emission at 665 and 620 nm is then converted to IP1 concentration by back calculating from an IP1 standard curve prepared at the time of the assay.

T1 sequence (O14842 whole entry): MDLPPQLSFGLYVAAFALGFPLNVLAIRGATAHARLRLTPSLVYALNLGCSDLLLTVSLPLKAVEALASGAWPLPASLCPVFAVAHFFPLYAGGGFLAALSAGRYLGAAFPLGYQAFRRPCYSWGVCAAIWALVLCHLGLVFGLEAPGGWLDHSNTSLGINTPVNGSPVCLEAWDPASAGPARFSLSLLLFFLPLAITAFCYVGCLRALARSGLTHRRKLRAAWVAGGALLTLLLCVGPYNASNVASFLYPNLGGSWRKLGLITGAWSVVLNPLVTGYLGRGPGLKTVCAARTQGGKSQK

Row | Structure (SMILES) | EC50 (Human GPR40 [1]) [nM] | EC50 (Human GPR40 [2]) [nM]
1 | CC1(C)CC(c2ccccc2F)c2cc(COc3cc4c(cn3)[C@H]3[C@@H](C4)[C@@H]3C(=O)O)ccc21 (stereo partly drawn) [Example 17, (5aR,6S,6aS)-3-((1,1-dimethyl-3-(2-fluorophenyl)-2,3-dihydro-1H-inden-5-yl)methoxy)-5,5a,6,6a-tetrahydrocyclopropa[4,5] cyclopenta[1,2-c]pyridine-6-carboxylic acid] | 21.7 | 43.7
2 | CC1(C)CC(c2ccccc2C(F)(F)F)c2cc(COc3cc4c(cn3)[C@H]3[C@@H](C4)[C@@H]3C(=O)O)c(F)cc21 (single isomer, unassigned) [Example 23] | 19.9 | 16.6
3 | C=C(C)CCOc1ccc(C2CCCc3ccc(COc4cc5c(cn4)[C@H]4[C@@H](C5)[C@@H]4C(=O)O)cc32)c(C)n1 (stereo partly drawn) [Example 31, (5aR,6S,6aS)-3-((8-(2-methyl-6-((3-methylbut-3-en-1-yl)oxy)pyridin-3-yl)-5,6,7,8-tetrahydronaphthalen-2-yl)methoxy)-5,5a,6,6a-tetrahydrocyclopropa[4,5] cyclopenta[1,2-c]pyridine-6-carboxylic acid] | 51.9 | 214
4 | CC1(C)CC(c2ccccc2C(F)(F)F)c2cc(COc3cc4c(cn3)[C@H]3[C@@H](C4)[C@@H]3C(=O)O)ccc21 (stereo partly drawn) [Example 3, (5aR,6S,6aS)-3-((1,1-dimethyl-3-(2-(trifluoromethyl)phenyl)-2,3-dihydro-1H-inden-5-yl)methoxy)-5,5a,6,6a-tetrahydrocyclopropa[4,5]cyclopenta[1,2-c]pyridine-6-carboxylic acid] | 9.28 | 769
5 | CC1=C(c2ccccc2C(F)(F)F)c2cc(COc3cc4c(cn3)[C@H]3[C@@H](C4)[C@@H]3C(=O)O)ccc2CC1 [Example 47, (5aR,6S,6aS)-3-((7-methyl-8-(2-(trifluoromethyl)-phenyl)-5,6-dihydro-naphthalen-2-yl)methoxy)-5,5a,6,6a-tetrahydrocyclo-propa[4,5]cyclopenta[1,2-c]pyridine-6-carboxylic acid] | 11.4 | 236
6 | O=C(O)[C@H]1[C@@H]2Cc3cc(OCc4ccc5c(c4)N(c4ccccc4)CCC5)ccc3[C@@H]21 [Example 66, (1S,1aS,6aR)-4-((1-phenyl-1,2,3,4-tetrahydroquinolin-7-yl)methoxy)-1,1a,6,6a-tetrahydrocyclopropa[a]indene-1-carboxylic acid] | 9.77 | 72.6
7 | CC1(C)OCC2(CO1)CC(c1ccccc1C(F)(F)F)c1cc(COc3cc4c(cn3)[C@H]3[C@@H](C4)[C@@H]3C(=O)O)ccc12 (stereo partly drawn) [Example 8, (5aR,6S,6aS)-3-((2,2-dimethyl-3′-(2-(trifluoromethyl)phenyl)-2′,3′-dihydrospiro[[1,3]dioxane-5,1′-inden]-5′-yl)methoxy)-5,5a,6,6a-tetrahydrocyclopropa[4,5]cyclopenta[1,2-c]pyridine-6-carboxylic acid] | 12.3 | 21.1
8 | O=C(O)[C@H]1[C@@H]2Cc3cc(OCc4ccc5c(c4)C(O)(c4ccccc4C(F)(F)F)CC5)ccc3[C@@H]21 (stereo partly drawn) [Example 21, (1S,1aS,6aR)-4-((3-hydroxy-3-(2-(trifluoromethyl)phenyl)-2,3-dihydro-1H-inden-5-yl)methoxy)-1,1a,6,6a-tetrahydrocyclopropa[a]indene-1-carboxylic acid] | 17.7 | 16.6
9 | COc1nccc(C)c1C1CC(C)(C)c2ccc(COc3cc4c(cn3)[C@H]3[C@@H](C4)[C@@H]3C(=O)O)cc21 (stereo partly drawn) [Example 15, (5aR,6S,6aS)-3-((3-(2-methoxy-4-methylpyridin-3-yl)-1,1-dimethyl-2,3-dihydro-1H-inden-5-yl)methoxy)-5,5a,6,6a-tetrahydrocyclopropa[4,5] cyclopenta[1,2-c]pyridine-6-carboxylic acid] | 8.6 | 7.77
10 | O=C(O)[C@H]1[C@@H]2Cc3cc(OCc4ccc5c(Br)cn(-c6ccccc6C(F)(F)F)c5c4)ncc3[C@@H]21 [Example 36, (5aR,6S,6aS)-3-({3-bromo-1-[2-(trifluoromethyl)phenyl]-1H-indol-6-yl}methoxy)-5,5a,6,6a-tetrahydrocyclopropa[4,5] cyclopenta[1,2-c]pyridine-6-carboxylic acid] | 26.9 | 47.6
11 | O=C(O)[C@H]1[C@@H]2Cc3cc(OCc4ccc5c(c4)C(c4ccccc4C(F)(F)F)CC54CC4)ncc3[C@@H]21 (stereo partly drawn) [Example 1, (5aR,6S,6aS)-3-((3′-(2-(trifluoromethyl)phenyl)-2′,3′-dihydrospiro[cyclopropane-1,1′-inden]-5′-yl)methoxy)-5,5a,6,6a-tetrahydrocyclopropa[4,5]cyclopenta[1,2-c]pyridine-6-carboxylic acid] | 32.6 | 11.4
12 | CC1(C)CC(c2ccncc2C(F)(F)F)c2cc(COc3cc4c(cn3)[C@H]3[C@@H](C4)[C@@H]3C(=O)O)c(F)cc21 (stereo partly shown) [Example 25] | 6.92 | 6.91
13 | CC1(C)CCN(c2ccccc2C(F)(F)F)c2cc(COc3cc4c(cn3)[C@H]3[C@@H](C4)[C@@H]3C(=O)O)c(F)cc21 [Example 53, (5aR,6S,6aS)-3-((6-fluoro-4,4-dimethyl-1-(2-(trifluoromethyl)phenyl)-1,2,3,4-tetrahydroquinolin-7-yl)methoxy)-5,5a,6,6a-tetrahydrocyclopropa[4,5]cyclopenta[1,2-c]pyridine-6-carboxylic acid] | 8.38 | 39.2
14 | COc1ncccc1C1CCC(C)(C)c2cc(F)c(COc3cc4c(cn3)[C@H]3[C@@H](C4)[C@@H]3C(=O)O)cc21 (stereo partly drawn) [Example 27, (5aR,6S,6aS)-3-((3-fluoro-8-(2-methoxypyridin-3-yl)-5,5-dimethyl-5,6,7,8-tetrahydronaphthalen-2-yl)methoxy)-5,5a,6,6a-tetrahydrocyclopropa [4,5]cyclopenta[1,2-c]pyridine-6-carboxylic acid] | 7.22 | 15.6
15 | O=C(O)[C@H]1[C@@H]2Cc3cc(OCc4ccc5c(c4)C(c4ccccc4C(F)(F)F)CC54COC4)ncc3[C@@H]21 (stereo partly drawn) [Example 7, (5aR,6S,6aS)-3-((3-(2-(trifluoromethyl)phenyl)-2,3-dihydrospiro[indene-1,3′-oxetan]-5-yl)methoxy)-5,5a,6,6a-tetrahydrocyclopropa[4,5]cyclopenta[1,2-c]pyridine-6-carboxylic acid] | 32.9 | 35.3
16 | O=C(O)[C@H]1[C@@H]2Cc3cc(OCc4ccc5c(c4)C(c4ccccc4C(F)(F)F)CC5c4ccccc4)ncc3[C@@H]21 (stereo partly drawn) [Example 19, (5aR,6S,6aS)-3-((1-phenyl-3-(2-(trifluoromethyl)phenyl)-2,3-dihydro-1H-inden-5-yl)methoxy)-5,5a,6,6a-tetrahydrocyclopropa[4,5]cyclopenta[1,2-c]pyridine-6-carboxylic acid] | 15.5 | 17.5
17 | O=C(O)[C@H]1[C@@H]2Cc3cc(OCc4ccc5c(c4)N(c4ccccn4)CCC5)ccc3[C@@H]21 [Example 67, (1S,1aS,6aR)-4-((1-(pyridin-2-yl)-1,2,3,4-tetrahydroquinolin-7-yl)methoxy)-1,1a,6,6a-tetrahydrocyclopropa[a] indene-1-carboxylic acid] | 28.9 | 169
18 | CC1CC(c2ccccc2C(F)(F)F)c2cc(COc3cc4c(cn3)[C@H]3[C@@H](C4)[C@@H]3C(=O)O)ccc21 (stereo partly drawn) [Example 5, (5aR,6S,6aS)-3-((1-methyl-3-(2-(trifluoromethyl)phenyl)-2,3-dihydro-1H-inden-5-yl)methoxy)-5,5a,6,6a-tetrahydrocyclopropa[4,5]cyclopenta[1,2-c]pyridine-6-carboxylic acid] | 20.8 | 21.6
19 | CC1(C)CC(c2ccccc2S(C)(=O)=O)c2cc(COc3cc4c(cn3)[C@H]3[C@@H](C4)[C@@H]3C(=O)O)ccc21 (stereo partly drawn) [Example 13, (5aR,6S,6aS)-3-((1,1-dimethyl-3-(2-(methyl-sulfonyl)phenyl)-2,3-dihydro-1H-inden-5-yl)methoxy)-5,5a,6,6a-tetrahydrocyclopropa[4,5] cyclopenta[1,2-c]pyridine-6-carboxylic acid] | 22.6 | 40.6
20 | O=C(O)[C@H]1[C@@H]2Cc3cc(OCc4ccc5ccn(-c6ccccc6C(F)(F)F)c5c4)ncc3[C@@H]21 [Example 34, (5aR,6S,6aS)-3-((1-(2-(trifluoromethyl)phenyl)-1H-indol-6-yl)methoxy)-5,5a,6,6a-tetrahydrocyclo-propa[4,5]cyclopenta[1,2-c]pyridine-6-carboxylic acid] | 33.9 | 23.2
